Results on 13 molecules are retold here after patent US9328075B2 (St. Jude Children's Research Hospital, priority 2011, dated 2016).

Series [1] is described as follows: in vitro. The conditions noted are these: human.
Series [2] has as its target IRdRp (PB2, PB1, PA and NP from the strain A/Vietnam/1203/04 (H1N1)) (Influenza A virus, UniProt Q5EP34). The series can be described thus: cell-based. Set-up: species or system influenza A/Vietnam/1203/04 (H1N1).
Series [3] can be described thus: in vitro. The settings on record: dog.
In series [4] the test system is A/Puerto Rico/8/34 (H1N1). The series is described as follows: microbe, parasite or virus in culture. The settings on record: Influenza A virus, H1N1, MDCK, 48 h, read-out: Growth Inhibition (%) 20 μM 48 h.

By IC50 is commonly meant the midpoint of a concentration-inhibition curve. Higher therefore signals weaker potency in that assay. A word on the inhibition: it is the share of the control response that was lost under treatment. With `CC1CCC(NC(=O)c2nc(-c3ccccn3)[nH]c(=O)c2O)CC1` (stereo not shown), the CC50 at 72 h in series [1] was less than 25 µM; in series [3], more than 25 µM. Half-maximal inhibition in series [2] (IC50) required 5.6 µM. Besides, the inhibition at 20 µM in series [4] came to 88%.
For `CC(CNC(=O)c1nc(-c2ccccn2)nc(O)c1O)c1ccccc1` (stereo not shown) the same measures were less than 25 µM, more than 25 µM, 20.5 µM and 50%.
Regarding `CC(C)(C)c1cccc(NC(=O)c2nc(-c3ccccn3)nc(O)c2O)c1`, the CC50 at 72 h in series [1] was less than 25 µM; in series [3], more than 25 µM. This molecule also registered an IC50 in series [2] of 5.9 µM. Also, the inhibition at 20 µM in series [4] turned out to be 94%.
Take `Cc1ccccc1NC(=O)c1nc(-c2ccccn2)nc(O)c1O`: the CC50 at 72 h in series [1] and in series [3] was more than 25 µM throughout. In series [2], the IC50 is 8.9 µM. For the same molecule, in series [4], the inhibition at 20 µM stood at 94%.
On to `O=C(NC1CCCc2ccccc21)c1nc(-c2ccccn2)[nH]c(=O)c1O` (stereo not shown), for which the CC50 at 72 h in series [1] is 2.6 µM; in series [3], 7 µM. 3.6 µM corresponded to half-maximal inhibition in series [2] (IC50). Besides, in series [4], the inhibition at 20 µM amounted to 97%.
For `COc1ccc(NC(=O)c2nc(-c3ccccn3)nc(O)c2O)c(C)c1` the same measures were less than 25 µM, more than 25 µM, 10 µM and 0%.
As to `O=C(NCc1cccc2ccccc12)c1nc(-c2ccccn2)[nH]c(=O)c1O`, the CC50 at 72 h is less than 25 µM in series [1] and more than 25 µM in series [3]. For the same molecule, half-maximal inhibition in series [2] (IC50) was put at 9.1 µM. The inhibition at 20 µM in series [4] came to 94%.
In the case of `Cc1cccc(NC(=O)c2nc(-c3ccccn3)nc(O)c2O)c1`, the values for the CC50 at 72 h in series [1] and in series [3] were less than 25 µM and more than 25 µM, respectively. Further, in series [2], the midpoint of inhibition, the IC50, lay at 27.1 µM. Further, the inhibition at 20 µM in series [4] is 75%.
For `CCCCC(CC)CNC(=O)c1nc(-c2ccccn2)nc(O)c1O` (stereo not shown) the same measures were less than 25 µM, more than 25 µM, 4.3 µM and 94%.
As to `CC(C)(C)CCNC(=O)c1nc(-c2ccccn2)nc(O)c1O`, the CC50 at 72 h in series [1] was less than 25 µM; in series [3], more than 25 µM. The same molecule had an IC50 in series [2] of 10.1 µM. In series [4], the inhibition at 20 µM amounted to 88%.
Turning to `CC1CCCCC1NC(=O)c1nc(-c2ccccn2)nc(O)c1O` (stereo not shown), the CC50 at 72 h was less than 25 µM in series [1] and 5.5 µM in series [3]. The molecule also registered an IC50 in series [2] of 5.5 µM. The inhibition at 20 µM in series [4] amounted to 97%.
On to `CC(C)CC(C)NC(=O)c1nc(-c2ccccn2)nc(O)c1O` (stereo not shown), for which the CC50 at 72 h in series [1] and in series [3] was more than 25 µM in each case. For the same molecule, the IC50 in series [2] came to 12.9 µM. Besides, in series [4], the inhibition at 20 µM turned out to be 50%.
For the molecule `CCCCCC(C)NC(=O)c1nc(-c2ccccn2)nc(O)c1O` (stereo not shown), the figures for the CC50 at 72 h in series [1] and in series [3] were less than 25 µM and more than 25 µM, respectively. The same molecule had an IC50 in series [2] of 14.1 µM. Moreover, in series [4], the inhibition at 20 µM was 88%.
